Measurements from article PMC9024597, “The Biological Fate of a Novel Anticancer Drug Candidate TNBG-5602: Metabolic Profile, Interaction with CYP450, and Pharmacokinetics in Rats” (Molecules, 2022).

Experiments:
[1] = biological target: T1, CYP2D6 (Homo sapiens, UniProt P10635); assay: IC50 assessment using recombinant human CYPs (probe dextromethorphan); assay type: in vitro ADME; conditions: recombinant CYP 0.025 μM, dextromethorphan 0.05 mg mL^−1, 37 °C, 30 min, n = 3; read-out: IC50 against CYP2D6
T1 construct: purchased IPHASE
Procedure: (§1) Figure 12 The inhibition curves for TNBG-5602 against cytochrome enzymes (mean ± SD, n = 3). TNBG-5602 (final concentrations of 0, 0.01, 0.1, 1.0, 10.0, and 100 μM) was incubated with recombinant cytochrome P450s (final concentration 0.025 μM) and the specific probe substates (final concentration 0.05 mg mL^−1) with NADPH to initiate the metabolic reaction. The incubations were carried out at 37 °C for 30 min with a total volume of 200 μL. The CYP isoforms tested were 2D6 (dextromethorphan), 2C9 (tolbutamide), and 3A4 (testosterone). […] The IC50 values were calculated using the GraphPad Prism statistical software (Version 8) by nonlinear regression analysis.
(§2) The LC-MS/MS instrument was the same as the system used to determine TNBG-5602. The mobile phase consisted of 0.1% formic acid, aqueous solution (Solvent A), and acetonitrile (Solvent B) at a flow rate of 0.3 mL min^−1. […]
(§3) For IC50 assessment, the inhibition curves were established by nonlinear regression analysis plotting the relative activity (y) versus the logarithm of the TNBG-5602 concentration (x). The inhibition curve and the half-maximal inhibitory concentration of TNBG-5602 against each CYP isoform were analyzed using the GraphPad Prism statistical software (version 8). […]

[2] = biological target: T2, CYP2C9 (Homo sapiens, UniProt P11712); assay: IC50 assessment using recombinant human CYPs (probe tolbutamide); assay type: in vitro ADME; conditions: recombinant CYP 0.025 μM, tolbutamide 0.05 mg mL^−1, 37 °C, 30 min, n = 3; read-out: IC50 against CYP2C9
T2 construct: purchased IPHASE
Procedure: as §1, §2, §3

[3] = tested on: five human cancer cell lines; design: method as in PMID 35541052; conditions: cited from earlier work

T2 sequence (P11712 whole entry): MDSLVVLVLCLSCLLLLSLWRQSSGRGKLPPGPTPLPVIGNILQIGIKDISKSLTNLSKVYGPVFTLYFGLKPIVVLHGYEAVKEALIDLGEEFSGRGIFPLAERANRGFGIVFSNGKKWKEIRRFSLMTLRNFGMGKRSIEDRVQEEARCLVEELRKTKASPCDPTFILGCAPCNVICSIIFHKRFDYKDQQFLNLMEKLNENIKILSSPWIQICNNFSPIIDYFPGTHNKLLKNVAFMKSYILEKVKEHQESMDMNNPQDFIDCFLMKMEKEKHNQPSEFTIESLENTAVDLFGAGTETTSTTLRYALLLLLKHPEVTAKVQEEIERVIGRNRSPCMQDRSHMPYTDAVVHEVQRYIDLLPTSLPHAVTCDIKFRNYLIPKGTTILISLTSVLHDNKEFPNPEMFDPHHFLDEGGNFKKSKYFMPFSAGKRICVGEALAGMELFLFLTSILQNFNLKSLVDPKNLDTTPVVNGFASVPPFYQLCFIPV
T1 sequence (P10635 whole entry): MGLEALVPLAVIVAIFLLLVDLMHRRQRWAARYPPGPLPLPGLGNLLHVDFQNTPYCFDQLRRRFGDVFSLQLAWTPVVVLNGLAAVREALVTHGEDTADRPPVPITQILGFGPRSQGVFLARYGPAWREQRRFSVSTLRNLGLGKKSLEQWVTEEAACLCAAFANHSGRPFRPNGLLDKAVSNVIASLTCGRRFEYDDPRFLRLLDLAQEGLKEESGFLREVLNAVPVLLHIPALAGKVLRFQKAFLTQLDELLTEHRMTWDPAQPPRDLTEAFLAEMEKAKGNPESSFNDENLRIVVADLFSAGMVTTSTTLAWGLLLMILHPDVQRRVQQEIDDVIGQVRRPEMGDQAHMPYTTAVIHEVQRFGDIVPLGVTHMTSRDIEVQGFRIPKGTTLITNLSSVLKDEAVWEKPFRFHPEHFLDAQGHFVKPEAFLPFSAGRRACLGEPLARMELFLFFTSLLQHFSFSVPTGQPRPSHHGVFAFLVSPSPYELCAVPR

IC50 [1]: 2.52 µM | IC50 [2]: 9.63 µM
Structure (SMILES): CN(C)CCN1CC2c3ccccc3CCN2c2nc3ccccc3nc21 (stereo not drawn) [TNBG-5602]
inhibitory activity against five human cancer cell lines [3]: strong inhibitory activity
